Measured values taken from patent publication US7498330B2, “4-oxo-4,6,7,8-tetrahydro-pyrrolo[1,2-a]pyrazine-6-carboxamide compounds” (Les Laboratories Servier, priority 2004, dated 2009).
Structures can show the parent of a compound that is named as a salt.

The molecules below were run against T1, human thrombin (Homo sapiens, UniProt P00734) (assay: Inhibition of human thrombin activity on human fibrinogen (fibrin formation, 405 nm)). Conditions: thrombin 0.7 nM, purified human fibrinogen, pre-incubation 20° C. 10 minutes, pH 7.4; read-out: IC50 (concentration of the compounds that inhibits 50% of the enzymatic activity of the thrombin).
T1 construct: human thrombin (Sigma, specific activity 3230 UNIH/mg); purchased Sigma
Format: biochemical
Experimental: For in vitro evaluation of the inhibitory activity of the products of the invention on human thrombin (Sigma, specific activity 3230 UNIH/mg), purified human fibrinogen ([…], Stago) (Fg) was added to a given amount of thrombin (0.7 nM) that had previously been incubated with or without the inhibitor to be tested (20° C., 10 minutes).
Inhibitors, enzymes and substrates are diluted in the same buffer ([…] phosphate buffer, pH 7.4, containing 0.12 M sodium chloride and 0.05% bovine serum albumin) and then distributed on a polystyrene microtitre plate in a volume of 50 μl.
The fibrin formed by the thrombin is measured using a spectrophotometer at 405 nm after from 10 to 15 minutes' reaction at 20° C.
The table below gives in nM the concentration of the compounds that inhibits 50% of the enzymatic activity (IC50) of the thrombin compared with the control without product.

IC50 [nM] | Structure (SMILES)
1.4 | O=C(COc1ccccc1CNC(=O)C1CCc2cnc(NCC(F)(F)c3cccc[n+]3[O-])c(=O)n21)NCCc1ccccn1 (stereo not shown) [Example 15, 3-{[2,2-Difluoro-2-(1-oxido-2-pyridyl)ethyl]amino}4-oxo-N-[2-(2-oxo-2-{[2-(2-pyridyl)ethyl]amino}ethoxy)benzyl]-4,6,7,8-tetrahydropyrrolo[1,2-a]pyrazine-6-carboxamide hydrochloride]
60 | O=C(NCc1cccs1)[C@@H]1CCc2cnc(NCC(F)(F)c3cccc[n+]3[O-])c(=O)n21 [Example 24, (6S)-3-{[2,2-Difluoro-2-(1-oxido-2-pyridyl)ethyl]amino}-N-(2-thienylmethyl)-4-oxo-4,6,7,8-tetrahydropyrrolo[1,2-a]pyrazine-6-carboxamide hydrochloride]
8.4 | O=C(NCc1ccccc1F)[C@@H]1CCc2cnc(NCC(F)(F)c3ccc4ccccc4[n+]3[O-])c(=O)n21 [Example 31, (6S)-3-{[2,2-Difluoro-2-(1-oxido 2-quinolinyl)ethyl]amino}-N-(2-fluorobenzyl)4-oxo-4,6,7,8-tetrahydropyrrolo[1,2-a]pyrazine 6-carboxamide]

The remaining lines, values behind:

Structure (SMILES) | IC50 [nM]
O=C(NCc1ccccc1Cl)C1CCc2cnc(NCC(F)(F)c3cccc[n+]3[O-])c(=O)n21 (racemic) [Example 8, 3-{[2,2-Difluoro-2-(1-oxido-2-pyridyl)ethyl]amino}-N-(2-chlorobenzyl)-4-oxo-4,6,7,8-tetrahydropyrrolo[1,2-a]pyrazine-6-carboxamide] | 38
O=C(NCc1ccccc1F)C1CCc2cnc(NCC(F)(F)c3cccc[n+]3[O-])c(=O)n21 (racemic) [Example 1, 3-{[2,2-Difluoro-2-(1-oxido-2-pyridyl)ethyl]amino}-N-(2-fluorobenzyl)4-oxo-4,6,7,8-tetrahydropyrrolo[1,2-a]pyrazine-6-carboxamide] | 28
O=C(NCc1ccccc1F)[C@@H]1CCc2cnc(NCC(F)(F)c3cccc[n+]3[O-])c(=O)n21 [Example 3, (6S)-3-{[2,2-Difluoro-2-(1-oxido-2-pyridyl)ethyl]amino}-N-(2-fluorobenzyl)-4-oxo-4,6,7,8-tetrahydropyrrolo[1,2-a]pyrazine-6-carboxamide] | 16
O=C(NCc1c(F)ccc(F)c1F)[C@@H]1CCc2cnc(NCC(F)(F)c3cccc[n+]3[O-])c(=O)n21 [Example 21, (6S)-3-{[2,2-Difluoro-2-(1-oxido-2-pyridyl)ethyl]amino}-N-(2,3,6-trifluorobenzyl)-4-oxo-4,6,7,8-tetrahydropyrrolo[1,2-a]pyrazine-6-carboxamide] | 11
